Source: patent US12630501B2, “Anti-fibrotic compounds and use thereof” (HADASIT MEDICAL RESEARCH SERVICES AND DEVELOPMENT LTD., priority 2019, dated 2026)
Where “and” joins values, the source holds several entries; their conditions need not be identical. Equal values may be shown once.

Assays:
Format in all cases: cell-based, human
Ku70 = Ku70 immunoprecipitation with pan-acetyl / Ku70 immunoblot in IPF-lung myofibroblasts
Procedure: (§1) Human lung myofibroblasts Differentiated fibroblasts from IPF-lungs and controls from patient lung biopsies performed for tumor diagnosis were obtained under a protocol detailed in Wallach-Dayan et al., J. Autoimmun. 59: 67-76, 2015. LL 97A (AlMy) (ATCC® CCL-191™)-IPF-lung, and LL 24 (ATCC® CCL-151™)-normal lung fibroblast cell lines were used.
Immunoprecipitation and immunoblotting Standard protocols were performed as described in Golan-Gerstl et al., Am. J. Respir. Cell Mol. Biol. 47: 271-279, 2012.
(§2) FLIP downregulation from an OD of 1.85 to 0.49 (about 3.5-fold) was detected in WB (FIG. 4F), and a […] from a mean fluorescence intensity (MFI)=10^3 to only 10^1 was detected with flow cytometry (FIG. 4G). Thus, SIRT1-mediated Ku70-deacetylation stabilizes IPF-lung myofibroblast FLIP via Ku70/FLIP complex. This effect of CMH on Ku70 further disrupts Ku70/FLIP complex and destabilizes FLIP in IPF-lung myofibroblasts.
(§3) IPF cell line ATCC-191 (0.5×10^6), were exposed in culture (10% DMEM) to a compound of Formula 6 (1 or 3 μM) vs. 4% DMSO (vehicle) for 16 h. Ku70 immunoprecipitation with subsequent pan-acetyl (FIG. 8A) and immunoblots of Ku70 with anti-Ku70 mAb (FIG. 8B) or FLIP with anti-FLIP mAb (FIG. 8C) were measured. […] IPF-lung myofibroblasts decreased FLIP expression from an OD of 1.00 to 0.51 (about twofold, FIG. 8C).

FLIP = FLIP protein by Western blot and flow cytometry in IPF-lung myofibroblasts; conditions: 16 h
Procedure: as §1
FLIP protein in lung myofibroblasts Standard WB and flow cytometry were performed as described in Cohen et al., Am. J. Respir. Cell Mol. Biol. 40: 231-238, 2009.
as §2, §3
IPF cell line ATCC-191 (0.5×10^6), were exposed in culture (10% DMEM) to a compound of Formula 12 (1 μM), vs. 4% DMSO (vehicle) for 16 h. Immunoblots of FLIP with anti-FLIP mAb were performed (FIG. 9). […] Thus, the compound of Formula 12 attenuates FLIP stabilization in IPF-lung myofibroblast.

IPF cell line ATCC-191 = assay: Caspase-3 cleaved vs. uncleaved immunoblot (direct cytotoxicity); conditions: 72 h
Procedure: IPF cell line ATCC-191 (0.5×10^6), were exposed in culture (10% DMEM) to a compound of Formula 6 (0.1-30 μM) vs. 4% DMSO (vehicle) for 72 h. Cells were lysed and immunoblots of caspase-3 cleaved vs. uncleaved were performed. […] Lower concentrations of a compound of Formula 6 treated cells even decreased their ratio indicating no toxicity of the analogue at these concentrations.

O=C(CCCCOc1ccc2ccccc2c1)NO [Formula 6]
Increase of Ku70 acetylation (Ku70; Formula 6 1 μM, 16 h): about 80 fold | Ku70 levels (anti-Ku70 immunoblot) (Ku70; Formula 6 1 μM, 16 h): without changing | Ku70 acetylation, optical density ratio to GAPDH (OD), pan-acetyl IB of Ku70 IP (Ku70; Formula 6 1 μM, 16 h, ATCC-191, vehicle 0.007): 0.55 OD | Inhibition of Ku70-deacetylation compared with CMH (Ku70; IPF-lung myofibroblasts): to a greater extent than CMH | Decrease of FLIP expression (FLIP; Formula 6 1 or 3 μM): about twofold | FLIP expression OD (anti-FLIP immunoblot) (FLIP; Formula 6 1 or 3 μM, ATCC-191, vehicle 1.00): 0.51 OD | Cleaved caspase-3 (IPF cell line ATCC-191; 0.1 μM): 7.5 | Cleaved/Uncleaved caspase-3 (IPF cell line ATCC-191; 0.1 μM): 0.27 | Uncleaved caspase-3 (IPF cell line ATCC-191; 0.1 μM): 27.37 | Cleaved caspase-3 (IPF cell line ATCC-191; 0.3 μM): 11.66 | Cleaved/Uncleaved caspase-3 (IPF cell line ATCC-191; 0.3 μM): 0.18 | Uncleaved caspase-3 (IPF cell line ATCC-191; 0.3 μM): 65.84 | Cleaved caspase-3 (IPF cell line ATCC-191; 1 μM): 27.59 | Cleaved/Uncleaved caspase-3 (IPF cell line ATCC-191; 1 μM): 0.46 | Uncleaved caspase-3 (IPF cell line ATCC-191; 1 μM): 60.57 | Cleaved caspase-3 (IPF cell line ATCC-191; 3 μM): 81.78 | Cleaved/Uncleaved caspase-3 (IPF cell line ATCC-191; 3 μM): 1.10 | Uncleaved caspase-3 (IPF cell line ATCC-191; 3 μM): 74.31 | Cleaved caspase-3 (IPF cell line ATCC-191; 10 μM): 112.38 | Cleaved/Uncleaved caspase-3 (IPF cell line ATCC-191; 10 μM): 1.43 | Uncleaved caspase-3 (IPF cell line ATCC-191; 10 μM): 78.84 | Cleaved caspase-3 (IPF cell line ATCC-191; 30 μM): 93.19 | Cleaved/Uncleaved caspase-3 (IPF cell line ATCC-191; 30 μM): 2.49 | Uncleaved caspase-3 (IPF cell line ATCC-191; 30 μM): 37.4 | Direct cytotoxic effects on cells (IPF cell line ATCC-191; 0.1-30 μM, in the absence of Fas): does not exert direct cytotoxic effects

COc1ccc(OCCCCC(=O)NO)cc1 [Formula 12]
Decrease of FLIP levels (FLIP; Formula 12 1 μM): about twofold | FLIP levels, optical density ratio to GAPDH (OD) (FLIP; Formula 12 1 μM, ATCC-191, vehicle 9.5, 13.3 and 8.4): 4.7 OD and 3.7 OD and 4.8 OD
